For one assay, the target named is T1, PI3Kδ (Homo sapiens, UniProt O00329).
T1 construct: endogenous in cells; host or cells: Raji (ATCC #CCL-86)
The assay can be described thus: ELISA assay for PI3Kδ: sandwich ELISA, phosphorylation of AKT (Thr308) in Raji cells. The assay is classed as cell-based. The conditions noted are these: cellular, pAKT (Thr308), Raji cells, anti-Human IgM stimulation; read-out: IC50 p110δ. How it is done:
Cellular PI3Kδ activity was determined by measuring the phosphorylation of AKT (Thr308) using a sandwich enzyme-linked immunosorbant assay (ELISA). Raji (Burkitt's Lymphoma) cells were obtained from ATCC (ATCC #CCL-86). Phosphate buffer saline (PBS) contained 2.7 M NaCl, 54 mM KCl, 86 mM […] (dibasic, anhydrous), and 28 mM […] (monobasic, anhydrous) at pH 7.2. Wash buffer contained PBS supplemented with 0.05% Tween-20. Blocking buffer contained wash buffer supplemented with 1% BSA. A 10× stimulation mixture contained 5 μg/mL anti-Human IgM antibody (Sigma #12386) diluted in serum-free RPMI medium (CellGro #CV-10-040-CV). Compounds for testing were dissolved and serially diluted in 100% DMSO (total of 10 concentrations), and then diluted in serum-free RPMI to 5×final assay concentration.
Raji cells were subcultured in RPMI medium supplemented with 10% fetal bovine serum, 100 IU/mL penicillin, 100 μg/mL streptomycin, and 1×MEM non-essential amino acids. Sandwich ELISA plates were prepared by coating 96-well assay plates (Pierce #15042) with 100 μL/well capture antibody (Cell Signaling Technology #7142 or 7144) diluted in PBS. Plates were incubated overnight at 4° C., then washed with wash buffer, after which 200 μL/well blocking buffer was added to the plates and incubated at room temperature for at least 2 hrs. Raji cells were resuspended in serum-free RPMI medium and seeded into V-bottom, 2-mL 96-well blocks (Corning #3961) at 10^6 cells/well, then incubated for 2 hrs in a 37° C., 5% CO2 incubator. Compound treatment was performed by adding the 5× compound mixture to the cells and incubating for 2 hrs at 37° C., 5% CO2, after which the 10× stimulation mixture was added to the plates and incubated for 30 min at 37° C., 5% CO2. Cells were pelleted by centrifuging plates at 1500 RPM for 5 min at room temperature. Media was carefully removed and cells were lysed by adding 100 μL/well cell lysis buffer (Cell Signaling Technology #9803) supplemented with protease and phosphatase inhibitors (Thermo Fisher #78443). Plates were incubated on ice for 30 min, then the lysates (80 μL for pAKT^T308, 10 μL for total AKT) were transferred to prepared assay plates and incubated at 4° C. overnight. After washing plates with wash buffer, 100 μL/well detection antibody (Cell Signaling Technology #7142 or 7144) diluted in blocking buffer was added to the plates and incubated for 1 hr at 37° C. Plates were washed and 100 μL/well of HRP-conjugated secondary antibody (Cell Signaling Technology #7142 or 7144) diluted in blocking buffer was added to plates and incubated for 1 hr at room temperature. Plates were washed with wash buffer and 100 μL/well of luminescent substrate was added to plates. After 1 min on a plate shaker at medium speed, luminescence was read on a Wallac Victor2 plate reader. IC50 values were determined by curve fitting using a Collaborative Drug Discovery database (www.collaborativedrug.com).
Background: ELISA stands for enzyme-linked immunosorbent assay.

A further assay concerns the target T2, PI3K delta (Homo sapiens, UniProt O00329).
T2 construct: purchased Millipore, Billerica, MA, USA
The assay can be described thus: Luciferase-based luminescence assay (KinaseGlo), PI3K delta enzymatic activity. The assay is classed as biochemical. The conditions noted are these: for IC50: inhibition of enzymatic activity, KinaseGlo, 25 μM ATP, read-out: IC50 p110δ; for α/δ ratio: ratio of enzymatic IC50 against PI3Kα over IC50 against PI3Kδ; for β/δ ratio / γ/δ ratio: ratio of enzymatic IC50 values, Table 1. How it is done:
(§1) PI3K catalyzes the conversion of phosphatidylinositol-4,5-bisphosphate (PIP2) and ATP to phosphatidylinositol-3,4,5-trisphosphate (PIP3) and ADP. For all assays, the reaction buffer comprised 50 mM HEPES, pH 7.5, 3 mM MgCl2, 1 mM EGTA, 100 mM NaCl, 0.03% CHAPS and 2 mM DTT. Compounds for testing were dissolved and serially diluted in 100% DMSO (total of 10 concentrations), then diluted 1:25 in reaction buffer.
(§2) PI3K alpha and PI3K delta enzymatic activity was determined by measuring the amount of ATP consumed following the kinase reaction using a luciferase-based luminescence assay (KinaseGlo®, Promega Corp., Madison, WI, USA). PI3K enzyme solutions were prepared by diluting PI3K alpha (Invitrogen Corp., Carlsbad, CA, USA) or PI3K delta (Millipore, Billerica, MA, USA) in reaction buffer, to 4× the final assay concentration (final concentrations of enzymes were 1.65 nM and 6.86 nM for PI3K alpha and PI3K delta, respectively). A substrate solution was prepared by mixing PIP2 and ATP in reaction buffer at 2× the final assay concentration (final concentrations were 50 μM and 25 μM for PIP2 and ATP respectively). 2.5 μL each of the compound and kinase mixtures were added to individual wells of white low volume 384-well assay plates and mixed by shaking. The reactions were started by adding 5 μL of substrate mixture per well and shaking. The assay plates were covered and reactions were allowed to proceed for 1 hour (PI3K alpha) or 2 hours (PI3K delta), after which 10 μL of Kinase Glo® reagent was added. The plates were briefly centrifuged and incubated for 10 minutes, after which luminescence was measured using a FlexStation plate reader (Molecular Devices, Sunnyvale, CA, USA). IC50 values were determined by curve fitting using Graphpad Prism software (Graphpad Software, La Jolla, CA, USA).
On the technique in general: Kinase-Glo reads ATP consumption through a luciferase reaction.

In another assay the target is T3, PI3K beta (Homo sapiens, UniProt P42338).
T3 construct: purchased Millipore, Billerica, MA, USA
Nature of the assay: Luciferase-based luminescence assay (ADP Glo), PI3K beta enzymatic activity. It is filed as biochemical. The note with it: for IC50: inhibition of enzymatic activity, ADP Glo, 25 μM ATP, read-out: IC50 p110β; for α/β ratio: ratio of enzymatic IC50 values, Table 1. The protocol:
as §1
(§3) PI3K beta and gamma enzymatic activity was determined by measuring the amount of ADP produced following the kinase reaction using a luciferase-based luminescence assay (ADP Glo®, Promega Corp., Madison, WI, USA). PI3K enzyme solutions were prepared by diluting PI3K beta (Millipore, Billerica, MA, USA) or PI3K gamma (Invitrogen Corp., Carlsbad, CA, USA) in reaction buffer, to 4× the final assay concentration (final concentrations of enzymes were 4.8 nM and 7.6 nM for PI3K beta and PI3K gamma respectively). A substrate solution was prepared by mixing PIP2 and ATP in reaction buffer at 2× the final assay concentration (final concentrations were 50 μM and 25 μM for PIP2 and ATP respectively). 2.5 μL each of the compound and kinase mixtures were added to individual wells of white low volume 384-well assay plates and mixed by shaking. The reactions were started by adding 5 μL of substrate mixture per well and shaking. The assay plates were covered and reactions were allowed to proceed for 1 hour. Then, 5 μL of reaction mix was transferred to another white low volume 384-well plate, and 5 μL of ADP-Glo™ reagent was added. The plates were briefly centrifuged and incubated for 40 minutes, after which 10 μL of kinase detection buffer was added. The plates then were centrifuged briefly, shaken slowly and equilibrated at room temperature for 30 minutes, after which luminescence was measured using a FlexStation plate reader (Molecular Devices, Sunnyvale, CA, USA). IC50 values were determined by curve fitting using Graphpad Prism software (Graphpad Software, La Jolla, CA, USA).
In general terms: In ADP-Glo the light output rises with the ADP produced.

Another assay addresses mTOR (Homo sapiens, UniProt P42345). Nature of the assay: mTOR inhibition (Table 1). The assay is classed as biochemical. The note with it: Table 1, no method described.
In another assay the target is T4, PI3K alpha (Homo sapiens, UniProt P42336).
T4 construct: purchased Invitrogen Corp., Carlsbad, CA, USA
Nature of the assay: Luciferase-based luminescence assay (KinaseGlo), PI3K alpha enzymatic activity. It is filed as biochemical. The conditions noted are these: inhibition of enzymatic activity, 25 μM ATP, read-out: IC50 p110α. The protocol:
as §1, §2

In another assay the target is T5, PI3K gamma (Homo sapiens, UniProt P48736).
T5 construct: purchased Invitrogen Corp., Carlsbad, CA, USA
The assay can be described thus: Luciferase-based luminescence assay (ADP Glo), PI3K gamma enzymatic activity. It is filed as biochemical. The note with it: inhibition of enzymatic activity, 25 μM ATP, read-out: IC50 p110γ. How it is done:
as §1, §3

T3 sequence (P42338 whole entry, species assumed): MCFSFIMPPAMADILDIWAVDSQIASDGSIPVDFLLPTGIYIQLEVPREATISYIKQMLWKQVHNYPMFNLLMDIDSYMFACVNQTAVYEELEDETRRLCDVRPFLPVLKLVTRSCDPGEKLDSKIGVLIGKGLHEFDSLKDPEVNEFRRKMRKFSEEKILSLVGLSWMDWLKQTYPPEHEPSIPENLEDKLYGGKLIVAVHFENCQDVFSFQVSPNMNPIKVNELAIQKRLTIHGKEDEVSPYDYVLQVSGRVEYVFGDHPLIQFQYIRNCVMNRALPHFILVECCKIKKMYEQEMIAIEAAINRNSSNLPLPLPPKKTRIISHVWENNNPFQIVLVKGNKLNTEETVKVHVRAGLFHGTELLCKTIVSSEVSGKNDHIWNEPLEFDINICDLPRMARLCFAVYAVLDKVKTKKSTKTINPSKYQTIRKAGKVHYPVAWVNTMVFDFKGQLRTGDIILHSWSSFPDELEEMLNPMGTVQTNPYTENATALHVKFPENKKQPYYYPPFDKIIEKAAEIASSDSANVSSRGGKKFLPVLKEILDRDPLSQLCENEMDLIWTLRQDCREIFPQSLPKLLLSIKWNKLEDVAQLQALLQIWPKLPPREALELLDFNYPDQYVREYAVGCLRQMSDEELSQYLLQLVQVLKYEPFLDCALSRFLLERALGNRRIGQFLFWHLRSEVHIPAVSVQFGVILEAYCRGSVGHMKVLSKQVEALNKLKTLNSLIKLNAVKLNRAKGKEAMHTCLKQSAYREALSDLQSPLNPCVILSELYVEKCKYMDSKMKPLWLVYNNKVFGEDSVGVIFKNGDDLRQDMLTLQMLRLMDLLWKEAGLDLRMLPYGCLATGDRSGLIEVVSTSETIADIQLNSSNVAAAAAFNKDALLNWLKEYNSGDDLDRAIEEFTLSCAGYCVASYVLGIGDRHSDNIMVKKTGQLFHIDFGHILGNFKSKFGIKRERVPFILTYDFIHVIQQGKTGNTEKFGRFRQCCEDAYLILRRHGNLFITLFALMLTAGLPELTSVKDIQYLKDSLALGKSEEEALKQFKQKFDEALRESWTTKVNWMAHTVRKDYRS
T3 sequence (P27986 whole entry partner, species assumed): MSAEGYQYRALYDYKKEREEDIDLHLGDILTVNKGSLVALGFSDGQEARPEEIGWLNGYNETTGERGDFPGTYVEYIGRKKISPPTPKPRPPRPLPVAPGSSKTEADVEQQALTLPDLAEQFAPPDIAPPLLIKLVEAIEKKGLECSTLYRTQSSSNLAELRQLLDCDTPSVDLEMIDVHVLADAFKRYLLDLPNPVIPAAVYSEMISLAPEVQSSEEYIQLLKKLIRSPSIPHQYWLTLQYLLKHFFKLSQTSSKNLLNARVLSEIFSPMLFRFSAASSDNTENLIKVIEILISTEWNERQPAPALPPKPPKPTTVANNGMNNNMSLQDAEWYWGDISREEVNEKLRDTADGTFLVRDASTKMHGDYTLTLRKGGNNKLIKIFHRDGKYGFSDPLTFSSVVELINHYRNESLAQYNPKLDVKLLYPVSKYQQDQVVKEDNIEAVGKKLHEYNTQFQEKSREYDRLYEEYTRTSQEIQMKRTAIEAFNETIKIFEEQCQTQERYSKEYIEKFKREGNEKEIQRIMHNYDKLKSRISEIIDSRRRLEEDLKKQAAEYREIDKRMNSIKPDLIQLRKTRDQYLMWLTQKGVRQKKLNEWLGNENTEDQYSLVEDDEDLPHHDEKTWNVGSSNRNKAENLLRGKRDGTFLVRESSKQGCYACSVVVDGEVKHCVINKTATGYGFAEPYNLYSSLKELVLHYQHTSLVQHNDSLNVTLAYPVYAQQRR
T4 sequence (P42336 whole entry, species assumed): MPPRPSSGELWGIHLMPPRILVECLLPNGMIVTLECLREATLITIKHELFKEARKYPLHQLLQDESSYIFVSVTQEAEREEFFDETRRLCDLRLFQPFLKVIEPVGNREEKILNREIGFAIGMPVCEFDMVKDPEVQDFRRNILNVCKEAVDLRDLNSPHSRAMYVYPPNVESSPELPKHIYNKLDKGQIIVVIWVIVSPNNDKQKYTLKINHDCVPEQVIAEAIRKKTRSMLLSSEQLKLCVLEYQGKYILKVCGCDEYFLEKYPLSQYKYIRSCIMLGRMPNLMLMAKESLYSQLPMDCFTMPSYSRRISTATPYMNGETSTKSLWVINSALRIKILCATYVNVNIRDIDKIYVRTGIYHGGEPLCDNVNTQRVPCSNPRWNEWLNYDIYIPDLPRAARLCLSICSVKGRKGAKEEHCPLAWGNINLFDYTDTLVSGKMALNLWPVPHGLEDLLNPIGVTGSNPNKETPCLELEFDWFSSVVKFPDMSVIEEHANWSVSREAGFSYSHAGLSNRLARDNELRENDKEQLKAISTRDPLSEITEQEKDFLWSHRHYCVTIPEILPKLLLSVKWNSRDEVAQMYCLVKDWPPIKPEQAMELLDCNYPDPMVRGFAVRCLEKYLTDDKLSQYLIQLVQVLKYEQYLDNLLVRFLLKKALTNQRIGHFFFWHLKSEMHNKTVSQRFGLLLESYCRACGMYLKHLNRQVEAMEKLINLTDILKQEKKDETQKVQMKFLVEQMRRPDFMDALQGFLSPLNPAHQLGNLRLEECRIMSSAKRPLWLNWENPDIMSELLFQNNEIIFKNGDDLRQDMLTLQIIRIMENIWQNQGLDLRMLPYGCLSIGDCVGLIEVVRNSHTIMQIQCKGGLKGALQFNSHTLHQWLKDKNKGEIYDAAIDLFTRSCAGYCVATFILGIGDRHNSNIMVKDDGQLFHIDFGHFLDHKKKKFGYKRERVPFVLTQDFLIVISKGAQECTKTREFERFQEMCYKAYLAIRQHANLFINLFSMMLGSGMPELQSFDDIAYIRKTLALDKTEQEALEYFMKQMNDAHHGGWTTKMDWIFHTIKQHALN
T4 sequence (P27986 whole entry partner, species assumed): as the sequence (P27986 whole entry partner, species assumed) above
T5 sequence (P48736 whole entry, species assumed): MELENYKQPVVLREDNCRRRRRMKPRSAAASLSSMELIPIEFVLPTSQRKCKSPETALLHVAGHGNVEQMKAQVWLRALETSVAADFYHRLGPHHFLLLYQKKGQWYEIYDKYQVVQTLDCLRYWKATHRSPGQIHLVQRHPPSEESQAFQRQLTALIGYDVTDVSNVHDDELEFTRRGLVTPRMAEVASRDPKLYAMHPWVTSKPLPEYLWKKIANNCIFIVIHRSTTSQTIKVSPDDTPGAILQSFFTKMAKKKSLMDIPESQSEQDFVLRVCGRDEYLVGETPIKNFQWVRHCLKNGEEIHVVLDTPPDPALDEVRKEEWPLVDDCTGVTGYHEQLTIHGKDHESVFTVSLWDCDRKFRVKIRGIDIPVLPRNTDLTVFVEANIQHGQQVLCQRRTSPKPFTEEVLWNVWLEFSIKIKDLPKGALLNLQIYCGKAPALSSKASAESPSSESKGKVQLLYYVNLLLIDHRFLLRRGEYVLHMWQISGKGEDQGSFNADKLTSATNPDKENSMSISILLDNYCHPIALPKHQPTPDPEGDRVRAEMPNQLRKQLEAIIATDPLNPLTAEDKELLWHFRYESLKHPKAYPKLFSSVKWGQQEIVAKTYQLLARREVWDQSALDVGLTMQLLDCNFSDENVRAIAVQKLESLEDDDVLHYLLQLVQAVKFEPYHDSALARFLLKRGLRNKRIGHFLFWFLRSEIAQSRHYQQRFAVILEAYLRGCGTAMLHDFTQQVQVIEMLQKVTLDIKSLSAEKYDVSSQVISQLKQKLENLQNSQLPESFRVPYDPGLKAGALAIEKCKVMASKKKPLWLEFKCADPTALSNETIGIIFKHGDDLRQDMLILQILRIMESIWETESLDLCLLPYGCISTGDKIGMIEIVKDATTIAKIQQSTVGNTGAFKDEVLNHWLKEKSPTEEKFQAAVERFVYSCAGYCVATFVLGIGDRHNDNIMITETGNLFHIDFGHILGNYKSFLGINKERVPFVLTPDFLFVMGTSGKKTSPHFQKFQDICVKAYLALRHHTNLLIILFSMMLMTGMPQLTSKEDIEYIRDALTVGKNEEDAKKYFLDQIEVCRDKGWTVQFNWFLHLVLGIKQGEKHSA
T1 sequence (O00329 whole entry): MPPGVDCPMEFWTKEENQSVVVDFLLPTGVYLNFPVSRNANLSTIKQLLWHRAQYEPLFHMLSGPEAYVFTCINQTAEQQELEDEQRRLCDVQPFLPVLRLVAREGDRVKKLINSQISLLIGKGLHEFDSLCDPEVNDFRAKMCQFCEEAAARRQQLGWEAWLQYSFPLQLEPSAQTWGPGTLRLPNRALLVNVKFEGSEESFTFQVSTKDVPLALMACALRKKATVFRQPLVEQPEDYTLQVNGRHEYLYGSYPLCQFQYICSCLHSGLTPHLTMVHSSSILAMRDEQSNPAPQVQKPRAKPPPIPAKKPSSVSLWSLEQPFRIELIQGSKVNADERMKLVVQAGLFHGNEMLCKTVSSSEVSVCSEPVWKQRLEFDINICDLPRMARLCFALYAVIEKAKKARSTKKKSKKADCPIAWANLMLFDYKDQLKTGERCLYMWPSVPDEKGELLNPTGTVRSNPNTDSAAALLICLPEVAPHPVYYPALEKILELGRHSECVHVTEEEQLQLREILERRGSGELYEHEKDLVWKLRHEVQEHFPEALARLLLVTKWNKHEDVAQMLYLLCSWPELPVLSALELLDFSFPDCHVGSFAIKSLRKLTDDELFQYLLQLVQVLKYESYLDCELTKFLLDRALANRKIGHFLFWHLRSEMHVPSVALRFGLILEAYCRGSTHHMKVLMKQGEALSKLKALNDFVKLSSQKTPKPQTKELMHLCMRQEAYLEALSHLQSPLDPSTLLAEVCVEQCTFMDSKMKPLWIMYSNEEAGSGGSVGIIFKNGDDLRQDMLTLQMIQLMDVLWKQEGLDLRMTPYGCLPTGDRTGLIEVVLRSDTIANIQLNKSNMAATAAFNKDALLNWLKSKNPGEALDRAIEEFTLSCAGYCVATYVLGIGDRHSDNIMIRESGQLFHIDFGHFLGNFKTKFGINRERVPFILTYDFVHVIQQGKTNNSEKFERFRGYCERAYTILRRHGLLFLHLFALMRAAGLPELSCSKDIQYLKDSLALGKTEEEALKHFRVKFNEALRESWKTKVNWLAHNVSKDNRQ
T1 sequence (P27986 whole entry partner): as the sequence (P27986 whole entry partner, species assumed) above

Consider `CC(C)(Cc1ccc(Cl)cc1)Nc1nc(N2CCOCC2)nc(-n2c(C(F)F)nc3ccccc32)n1` [Compound A23, N-(1-(4-chlorophenyl)-2-methylpropan-2-yl)-4-(2-(difluoromethyl)-1H-benzo[d]imidazol-1-yl)-6-morpholino-1,3,5-triazin-2-amine], for which the IC50 (usually the point on the concentration scale where inhibition reaches its midpoint) at PI3Kδ was not above 0.1 µM; at PI3K delta, not above 0.1 µM; on PI3K beta, 0.2 to 0.5 µM; at mTOR, more than 0.5 µM; at PI3K alpha, more than 0.5 µM; on PI3K gamma, 0.2 to 0.5 µM. On PI3K delta, the α/δ ratio entry is recorded as “B’”. Also, the β/δ ratio entry at PI3K delta is given as “D’”. Also, the γ/δ ratio result at PI3K delta is given as “C’”. At PI3K beta, the α/β ratio entry is listed as “D’”.

As to `CC(C)(Cc1ccc(Br)cc1)Nc1nc(N2CCOCC2)nc(-n2c(C(F)F)nc3ccccc32)n1` [Compound A24, N-(1-(4-bromophenyl)-2-methylpropan-2-yl)-4-(2-(difluoromethyl)-1H-benzo[d]imidazol-1-yl)-6-morpholino-1,3,5-triazin-2-amine], the IC50 at PI3Kδ is not above 0.1 µM; on PI3K delta it was 0.1 to 0.2 µM; on PI3K beta, more than 0.5 µM; on mTOR, more than 0.5 µM; on PI3K alpha, more than 0.5 µM; at PI3K gamma, 0.2 to 0.5 µM. Also, at PI3K delta, the α/δ ratio result is “D’”. In addition, at PI3K delta, the β/δ ratio entry was “C’”. The γ/δ ratio entry at PI3K delta is given as “D’”. In addition, on PI3K beta, the α/β ratio result is recorded as “D’”.

Take `COc1ccc(CC(C)(C)Nc2nc(N3CCOCC3)nc(-n3c(C(F)F)nc4ccccc43)n2)cc1` [Compound A25, 4-(2-(difluoromethyl)-1H-benzo[d]imidazol-1-yl)-N-(1-(4-methoxyphenyl)-2-methylpropan-2-yl)-6-morpholino-1,3,5-triazin-2-amine]: the IC50 is not above 0.1 µM on PI3Kδ; 0.2 to 0.5 µM at PI3K delta; more than 0.5 µM at PI3K beta; more than 0.5 µM against mTOR; more than 0.5 µM at PI3K alpha; more than 0.5 µM at PI3K gamma. For the same compound, the α/δ ratio entry on PI3K delta is on record as “D’”. In addition, at PI3K delta, the β/δ ratio result is recorded as “A’”. The γ/δ ratio result at PI3K delta is “D’”. Further, the α/β ratio result on PI3K beta was “D’”.

Source of the values: US12059422B2 (MEI Pharma, Inc., priority 2011, dated 2024).
